According to ChEMBL document CHEMBL1135269, “Benzoindoloquinolines interact with DNA tetraplexes and inhibit telomerase” (Bioorg Med Chem Lett, 2002):
pIC50: −log10 of the molar value.

Experiments:
[1] = target: DNA polymerase I, thermostable (Thermus aquaticus, UniProt P19821); test: Tested for inhibitory activity against Taq DNA polymerase
[2] = target: Telomerase reverse transcriptase (Homo sapiens, UniProt O14746); test: Tested for inhibitory activity against Telomerase in telomerase repeat amplification protocol (TRAP) assay
Chain of Telomerase reverse transcriptase (O14746 whole entry): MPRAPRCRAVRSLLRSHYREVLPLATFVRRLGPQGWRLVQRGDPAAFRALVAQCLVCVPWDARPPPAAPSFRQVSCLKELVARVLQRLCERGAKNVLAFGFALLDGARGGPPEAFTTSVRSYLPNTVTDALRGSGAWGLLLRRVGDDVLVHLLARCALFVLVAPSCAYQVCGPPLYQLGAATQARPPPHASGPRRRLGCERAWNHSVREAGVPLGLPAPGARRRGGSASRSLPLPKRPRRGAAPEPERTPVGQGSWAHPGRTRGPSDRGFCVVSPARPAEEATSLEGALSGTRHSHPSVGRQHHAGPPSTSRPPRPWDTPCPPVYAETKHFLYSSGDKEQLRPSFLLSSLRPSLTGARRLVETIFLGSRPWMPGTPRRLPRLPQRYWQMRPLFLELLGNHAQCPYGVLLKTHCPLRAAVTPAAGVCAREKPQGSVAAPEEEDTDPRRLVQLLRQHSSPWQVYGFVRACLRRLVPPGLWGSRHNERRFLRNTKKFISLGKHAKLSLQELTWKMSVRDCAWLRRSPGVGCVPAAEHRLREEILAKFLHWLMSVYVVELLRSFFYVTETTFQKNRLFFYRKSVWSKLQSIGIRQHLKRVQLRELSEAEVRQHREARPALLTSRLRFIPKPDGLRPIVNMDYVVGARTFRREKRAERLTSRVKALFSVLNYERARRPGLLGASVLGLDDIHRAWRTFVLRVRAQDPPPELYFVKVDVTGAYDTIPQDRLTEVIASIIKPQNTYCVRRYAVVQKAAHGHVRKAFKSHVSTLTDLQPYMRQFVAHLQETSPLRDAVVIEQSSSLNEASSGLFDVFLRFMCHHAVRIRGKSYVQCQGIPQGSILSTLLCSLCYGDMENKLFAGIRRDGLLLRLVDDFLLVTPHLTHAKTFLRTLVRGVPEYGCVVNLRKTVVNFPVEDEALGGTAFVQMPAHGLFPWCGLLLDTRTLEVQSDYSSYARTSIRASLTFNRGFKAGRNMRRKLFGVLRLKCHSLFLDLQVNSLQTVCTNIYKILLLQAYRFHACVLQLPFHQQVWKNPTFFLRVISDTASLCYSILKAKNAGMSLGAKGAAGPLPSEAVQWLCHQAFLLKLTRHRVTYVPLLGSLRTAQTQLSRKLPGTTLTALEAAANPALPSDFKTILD

Chain of DNA polymerase I, thermostable (P19821 whole entry): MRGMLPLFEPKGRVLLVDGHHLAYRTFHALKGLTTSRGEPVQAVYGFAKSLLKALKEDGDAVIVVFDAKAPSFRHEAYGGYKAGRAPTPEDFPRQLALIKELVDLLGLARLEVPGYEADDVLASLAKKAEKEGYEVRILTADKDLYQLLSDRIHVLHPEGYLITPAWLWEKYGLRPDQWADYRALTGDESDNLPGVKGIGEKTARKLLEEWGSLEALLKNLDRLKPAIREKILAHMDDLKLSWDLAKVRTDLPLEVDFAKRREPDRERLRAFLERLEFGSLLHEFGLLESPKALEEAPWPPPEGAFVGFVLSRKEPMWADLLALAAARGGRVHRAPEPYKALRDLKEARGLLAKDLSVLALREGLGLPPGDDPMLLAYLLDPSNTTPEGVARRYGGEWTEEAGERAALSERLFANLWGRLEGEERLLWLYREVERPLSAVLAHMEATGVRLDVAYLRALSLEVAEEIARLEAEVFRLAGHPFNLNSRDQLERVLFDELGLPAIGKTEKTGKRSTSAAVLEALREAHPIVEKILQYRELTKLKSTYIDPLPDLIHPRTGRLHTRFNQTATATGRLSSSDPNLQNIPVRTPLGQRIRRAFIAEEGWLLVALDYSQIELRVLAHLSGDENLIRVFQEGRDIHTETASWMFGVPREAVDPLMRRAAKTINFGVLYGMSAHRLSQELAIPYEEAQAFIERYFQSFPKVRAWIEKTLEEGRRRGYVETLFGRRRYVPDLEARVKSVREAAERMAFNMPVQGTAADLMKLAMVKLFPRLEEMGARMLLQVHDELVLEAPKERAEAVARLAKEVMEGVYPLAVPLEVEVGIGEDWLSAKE

| pIC50 [1] | pIC50 [2] | SMILES |
| --- | --- | --- |
| < 5.00 | 5.01 | COc1ccc2ccc3c([nH]c4c5ccccc5nc(NCCN(C)C)c34)c2c1 |
| 5.30 | 6.30 | CN(C)CCCNc1nc2ccccc2c2[nH]c3c4cc([N+](=O)[O-])ccc4ccc3c12 |
| 6.05 | 6.00 | COc1ccc2c(ccc3c2[nH]c2c4ccccc4nc(NCCCN(C)C)c32)c1 |
| 5.66 | 5.96 | COc1ccc2ccc3c([nH]c4c5ccccc5nc(NCCCN(C)C)c34)c2c1 |
